Measurements as given in patent US8822407B2, “Preparation of conjugates comprising adenine derivatives and allergenic proteins and their use for specific immunotherapy of allengenic diseases” (Universita' Degli Studi di Firenze, priority 2010, dated 2014).

Assays:
purified CD14+ cells = assay: Cytokine production by purified CD14+ cells (ELISA of supernatants, 36 hrs); type: cell-based, human; conditions: Table B, dose 2 μg/ml
Procedure: Circulating mononuclear cells (MNC) are isolated by density gradient (Ficoll-Hypaque) using buffy coats from 14 normal donors (Servizio Immunotrasfusionale e terapie cellulari, Azienda Ospedaliera Universitaria A. Meyer, Firenze). 200×10^6 MNC are separated by the use of a commercial kit (CD14 isolation kit, Miltenyi) by the addition of 400 μl anti-CD14 monoclonal antibody bound to iron beads followed by isolation on magnetic columns (LS column). 50×10^6 monocytes are recovered by positive selection and are extensively washed with calcium and magnesium-free sterile PBS and then seeded in complete medium plus 10% foetal calf serum in 24 flat bottomed plates at the concentration of 1×10^6/ml. […] The plates are incubated for 36 hrs at 37° C. in 5% CO2 humidified atmosphere and the supernatants are collected after centrifugation at 1200 rpm, aliquoted and then stored at −20° C. up to the assay. […]
(§1) For the determination of cytokines and chemokines of the innate immunity, commercial ELISAs have been used: IL-12p40 (Cytoscreen, Biosource Int, Camarillo, Calif.), IFN-alfa (Cytoscreen), TNF-alfa (Cytoscreen), IL-10 (Pharmingen), IL-6 and CXCL10 (R&D System). 100 μl/well of single supernatants are incubated in flat bottomed plates as specified by the productors and the amounts of the single cytokines are expressed as pg/ml on the basis of a reference curve by using recombinant cytokines.

purified BDCA4+ cells = assay: Cytokine production by purified BDCA4+ cells (plasmacytoid dendritic cells), ELISA; type: cell-based, human
Procedure: The preparation of purified BDCA4+ cells has been obtained in a similar way starting from MNC of buffy coats of the same 14 healthy donors. […] By positive selection 5×10^6 plasmacytoid dendritic cells (PDCs) are recovered, extensively washed with calcium and magnesium-free sterile PBS and seeded in complete medium plus 10% foetal calf serum in 24-flat bottomed plates at the concentration 1×10^6/ml. […] The plates are incubated for 36 hrs at 37° C. in 5% CO2 humidified atmosphere and the supernatants are collected after centrifugation at 1200 rpm, aliquoted and then stored at −20° C. up to the assay. […]
as §1

human TLR7 = biological target: T1, human TLR7 (Homo sapiens, UniProt Q9NYK1); assay: TLR7 activation, NF-kB luciferase reporter in transfected HEK293 cells; type: cell-based; conditions: human TLR7-encoding plasmid
T1 construct: expressed in transfected cells; host or cells: HEK293 (transient Nucleofection, Amaxa)
T1 sequence (Q9NYK1 27-1049): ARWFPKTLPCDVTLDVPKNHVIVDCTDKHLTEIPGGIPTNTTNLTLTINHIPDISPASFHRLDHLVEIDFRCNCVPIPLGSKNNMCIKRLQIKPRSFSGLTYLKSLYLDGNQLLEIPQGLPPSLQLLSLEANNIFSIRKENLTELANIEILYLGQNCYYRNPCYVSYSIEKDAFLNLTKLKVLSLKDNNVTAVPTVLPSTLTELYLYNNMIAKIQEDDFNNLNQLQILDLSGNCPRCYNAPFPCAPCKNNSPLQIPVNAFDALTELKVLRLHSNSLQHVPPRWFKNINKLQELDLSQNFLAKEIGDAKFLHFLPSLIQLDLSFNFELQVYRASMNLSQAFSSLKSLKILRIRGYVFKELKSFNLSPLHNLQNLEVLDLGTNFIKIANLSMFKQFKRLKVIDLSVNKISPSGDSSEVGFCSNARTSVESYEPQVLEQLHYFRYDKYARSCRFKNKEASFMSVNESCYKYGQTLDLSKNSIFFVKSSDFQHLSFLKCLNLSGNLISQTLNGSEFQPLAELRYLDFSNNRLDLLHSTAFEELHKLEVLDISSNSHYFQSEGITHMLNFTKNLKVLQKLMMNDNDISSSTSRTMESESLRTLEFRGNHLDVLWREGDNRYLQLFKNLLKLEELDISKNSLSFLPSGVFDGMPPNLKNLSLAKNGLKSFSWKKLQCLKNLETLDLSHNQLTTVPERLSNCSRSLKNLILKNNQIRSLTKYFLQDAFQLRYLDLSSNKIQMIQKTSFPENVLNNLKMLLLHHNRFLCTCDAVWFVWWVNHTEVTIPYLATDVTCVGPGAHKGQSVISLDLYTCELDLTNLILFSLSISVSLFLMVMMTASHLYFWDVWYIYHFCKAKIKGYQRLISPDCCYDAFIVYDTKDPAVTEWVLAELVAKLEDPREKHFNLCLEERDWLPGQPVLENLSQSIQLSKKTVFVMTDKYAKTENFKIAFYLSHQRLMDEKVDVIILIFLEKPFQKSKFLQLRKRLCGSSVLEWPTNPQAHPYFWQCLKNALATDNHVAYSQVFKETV
Procedure: HEK293 cells are detached by trypsin from the plastic surface of the culture bottle, extensively washed with calcium and magnesium-free PBS, counted and adjusted at the concentration 1×10^6 cells/tube in polypropylene V-bottomed tubes. After the final wash, the cells are pelleted and 100 μl transfection buffer (Amaxa) is added together with […], TLR7, TLR8 or TLR9-encoding and ELAM-1 promoter NF-kB luciferase reporter plasmids. The mixture thus obtained is transferred in special cuvettes and transient transfection is obtained in a special apparatus which is able to directly introduce genetic material into the nucleus (Nucleofection®, Amaxa GmbH). The cells are then recovered and cultured at 1×10^5/ml in 48-flat bottomed plates in E-MEM medium plus 5% foetal calf serum for 18 hrs. […] Finally the luciferase activity is measured in the cellular lysates by a commercial kit (Promega).

[1] = Table C, Donor #1, R-848, dose not printed in table (2 μg/ml elsewhere in the source)
[2] = Table C, Donor #2, R-848 (2 μg/ml)
[3] = Table F, Donor #1, dose 2 μg/ml
[4] = Table F, Donor #2, dose 2 μg/ml

For `CCOCc1nc2c(N)nc3ccccc3c2n1CC(C)(C)O` [Conj R-848, reference compound], the “IL-6 production (mean ± SE)” value (purified CD14+ cells) was 45.8 ± 15.2 ng/mL, the “IL-10 production (mean ± SE)” value (purified CD14+ cells) was 2.0 ± 0.5 ng/mL and the “IL-12p40 production (mean ± SE)” value (purified CD14+ cells) was 16.9 ± 6.3 ng/mL. The “TNF-alfa production (mean ± SE)” value (purified CD14+ cells) was 16.3 ± 4.9 ng/mL, the IFN-alfa production (purified BDCA4+ cells; [1]) was 3154 pg/mL and the IL-6 production (purified BDCA4+ cells; [1]) was 746 pg/mL. It also gave an IL-10 production (purified BDCA4+ cells; [1]) of 1500 pg/mL, a TNF-alfa production (purified BDCA4+ cells; [1]) of 10368 pg/mL and an IFN-alfa production (purified BDCA4+ cells; [2]) of 6187 pg/mL. It also gave an IL-6 production (purified BDCA4+ cells; [2]) of 308 pg/mL, an IL-10 production (purified BDCA4+ cells; [2]) of 753 pg/mL and a TNF-alfa production (purified BDCA4+ cells; [2]) of 20990 pg/mL. The “IFN-alfa production (mean ± SE)” value (purified BDCA4+ cells; Table D, dose 2 μg/ml) was 5.6 ± 2.5 ng/mL, the “IL-6 production (mean ± SE)” value (purified BDCA4+ cells; Table D, dose 2 μg/ml) was 7.7 ± 2.6 ng/mL and the “IL-10 production (mean ± SE)” value (purified BDCA4+ cells; Table D, dose 2 μg/ml) was 1.0 ± 0.6 ng/mL. The “TNF-alfa production (mean ± SE)” value (purified BDCA4+ cells; Table D, dose 2 μg/ml) was 5.4 ± 1.4 ng/mL, the IFN-alfa production (purified BDCA4+ cells; [3]) was 1131 pg/mL and the IL-6 production (purified BDCA4+ cells; [3]) was 44302 pg/mL. For the same molecule, the IL-10 production (purified BDCA4+ cells; [3]) was 1864 pg/mL, the TNF-alfa production (purified BDCA4+ cells; [3]) was 4832 pg/mL and the IFN-alfa production (purified BDCA4+ cells; [4]) was 1605 pg/mL. For the same molecule, the IL-6 production (purified BDCA4+ cells; [4]) was 37603 pg/mL, the IL-10 production (purified BDCA4+ cells; [4]) was 1305 pg/mL and the TNF-alfa production (purified BDCA4+ cells; [4]) was 6898 pg/mL. The “cytokine production from BDCA4+ cells (in words)” value (purified BDCA4+ cells; text to Tables C and D) was “high levels of IFN-alfa, IL-10 and CXCL10” and the “TLR7 activation (NF-κB luciferase) in transfected HEK293 cells” value (human TLR7) was “able to induce NF-κB expression”.
